# Results: patent US8883826B2, “Alkynyl derivatives as modulators of metabotropic glutamate receptors” (Addex Pharma SA, priority 2004, dated 2014)
# Target: T1, mGluR5 (Rattus norvegicus, UniProt P31424)
# T1 construct: tissue Charles River Laboratories; host or cells: rat brain cortex membranes (Sprague-Dawley)
# Experiment: mGluR5 binding assay ([3H]-MPEP radioligand competition)
# Conditions: competition with 3 nM [3H]-MPEP, rat brain cortical membranes, 1 h at 4 °C; mean of at least three independent experiments in duplicate
# Text: Activity of compounds of the invention was examined following a radioligand binding technique using whole rat brain and tritiated 2-methyl-6-(phenylethynyl)-pyridine ([^3H]-MPEP) as a ligand following similar methods than those described in F. Gasparini et al. Bioorg. Med. Chem. Lett. 2002, 12, 407-409 and in J. F. Anderson et al. J. Pharmacol. Exp. Ther. 2002, 303, 3, 1044-1051.
# Cortices were dissected out from brains of 200-300 g Sprague-Dawley rats (Charles River Laboratories, L'Arbresle, France). Tissues were homogenized in 10 volumes (vol/wt) of ice-cold 50 mM Hepes-NaOH (pH 7.4) using a Polytron disrupter (Kinematica AG, Luzern, Switzerland) and centrifuged for 30 min at 40,000 g. (4° C.). The supernatant was discarded and the pellet washed twice by resuspension in 10 volumes 50 mM HEPES-NaOH. Membranes were then collected by centrifugation and washed before final resuspension in 10 volumes of 20 mM HEPES-NaOH, pH 7.4. Protein concentration was determined by the Bradford method (Bio-Rad protein assay, Reinach, Switzerland) with bovine serum albumin as standard.
# [^3H]-MPEP Binding Experiments:
# Membranes were thawed and resuspended in binding buffer containing 20 mM HEPES-NaOH, 3 mM MgCl2, 3 mM CaCl2, 100 mM NaCl, pH 7.4. Competition studies were carried out by incubating for 1 h at 4° C.: 3 nM [^3H]-MPEP (39 Ci/mmol, Tocris, Cookson Ltd, Bristol, U.K.), 50 μg membrane and a concentration range of 0.003 nM-30 μM of compounds, for a total reaction volume of 300 μl. The non-specific binding was defined using 30 μM MPEP. Reaction was terminated by rapid filtration over glass-fiber filter plates (Unifilter 96-well GF/B filter plates, Perkin-Elmer, Schwerzenbach, Switzerland) using 4×400 μl ice cold buffer using cell harvester (Filtermate, Perkin-Elmer, Downers Grove, USA). Radioactivity was determined by liquid scintillation spectrometry using a 96-well plate reader (TopCount, Perkin-Elmer, Downers Grove, USA).
# The inhibition curves were generated using the Prism GraphPad program (Graph Pad Software Inc, San Diego, USA). IC50 determinations were made from data obtained from 8 point-concentration response curves using a non linear regression analysis.
# The table below represents the mean of IC50 obtained from at least three independent experiments of selected molecules performed in duplicate.
# T1 sequence (P31424 21-1203): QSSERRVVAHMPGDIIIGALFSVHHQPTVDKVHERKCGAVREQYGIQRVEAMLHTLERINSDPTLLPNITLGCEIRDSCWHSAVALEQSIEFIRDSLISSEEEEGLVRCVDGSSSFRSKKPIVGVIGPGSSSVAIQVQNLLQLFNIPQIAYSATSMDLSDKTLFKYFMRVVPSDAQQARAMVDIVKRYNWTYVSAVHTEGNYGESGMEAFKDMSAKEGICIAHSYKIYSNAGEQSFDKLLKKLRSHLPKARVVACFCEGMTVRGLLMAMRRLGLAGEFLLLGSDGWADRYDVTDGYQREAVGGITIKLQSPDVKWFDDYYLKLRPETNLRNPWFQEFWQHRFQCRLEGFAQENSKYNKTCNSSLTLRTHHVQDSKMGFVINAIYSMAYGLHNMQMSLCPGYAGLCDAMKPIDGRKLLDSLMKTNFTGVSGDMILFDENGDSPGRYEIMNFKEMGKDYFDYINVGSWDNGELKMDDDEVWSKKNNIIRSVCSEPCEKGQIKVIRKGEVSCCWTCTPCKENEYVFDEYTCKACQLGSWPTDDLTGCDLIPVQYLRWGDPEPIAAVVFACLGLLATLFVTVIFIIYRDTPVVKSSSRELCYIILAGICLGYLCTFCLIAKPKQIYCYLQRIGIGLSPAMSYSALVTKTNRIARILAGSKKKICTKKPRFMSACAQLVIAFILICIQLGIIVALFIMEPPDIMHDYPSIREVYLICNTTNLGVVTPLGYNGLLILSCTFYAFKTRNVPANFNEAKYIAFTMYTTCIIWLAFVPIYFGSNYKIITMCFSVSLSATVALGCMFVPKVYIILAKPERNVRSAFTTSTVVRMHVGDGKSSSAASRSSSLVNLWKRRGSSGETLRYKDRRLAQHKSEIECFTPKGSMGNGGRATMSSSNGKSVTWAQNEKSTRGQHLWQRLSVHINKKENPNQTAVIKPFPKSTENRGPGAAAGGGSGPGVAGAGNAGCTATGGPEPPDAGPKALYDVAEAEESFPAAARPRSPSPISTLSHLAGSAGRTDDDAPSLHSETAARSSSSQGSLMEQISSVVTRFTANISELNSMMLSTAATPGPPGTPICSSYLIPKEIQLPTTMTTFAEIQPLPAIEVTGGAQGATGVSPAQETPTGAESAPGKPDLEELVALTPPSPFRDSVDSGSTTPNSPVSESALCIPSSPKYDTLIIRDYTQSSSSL
row,IC50,SMILES
1,< 50 nM,"Fc1ccc2nc(CCC#Cc3ccccn3)oc2c1 [Example 62, 6-Fluoro-2-(4-(pyridin-2-yl)but-3-ynyl)benzo[d]oxazole]"
2,< 500 nM,"C(#Cc1ccccn1)CCc1ccc2ccccc2n1 [Example 118, 2-(4-(Pyridin-2-yl)but-3-ynyl)quinoline]"
3,< 50 nM,"O=C(OCCC#Cc1ccccn1)c1cccc(Cl)c1 [Example 236, 4-(Pyridin-2-yl)but-3-ynyl 3-chlorobenzoate]"
4,< 10000 nM,"O=[N+]([O-])c1cccc2nn(CCC#Cc3ccccn3)nc12 [Example 160, 4-Nitro-2-(4-(pyridin-2-yl)but-3-ynyl)-2H-benzo[d][1,2,3]triazole]"
5,< 10000 nM,"Clc1cccc(Cl)c1-c1noc(CCC#Cc2ccccn2)n1 [Example 55, 2-(4-(3-(2,6-Dichlorophenyl)-1,2,4-oxadiazol-5-yl)but-1-ynyl)pyridine]"
6,< 10000 nM,"Fc1ccc(C(F)(F)F)c2nc(CCC#Cc3ccccn3)oc12 [Example 97, 7-Fluoro-4-(trifluoromethyl)-2-(4-(pyridin-2-yl)but-3-ynyl)benzo[d]oxazole]"
7,< 10000 nM,"Cc1cccn2cc(CCC#Cc3ccccn3)nc12 [Example 67, 8-Methyl-2-(4-(pyridin-2-yl)but-3-ynyl)-imidazo[1,2-a]pyridine]"
8,< 500 nM,"C(#Cc1nc2ccccc2o1)CCc1ccccc1 [Example 7, 2-(4-Phenylbut-1-ynyl)benzo[d]oxazole]"
9,< 500 nM,"CN(CCC#Cc1cccc(CF)n1)C(=O)c1ccccc1Cl [Example 208, 2-Chloro-N-(4-(6-(fluoromethyl)pyridin-2-yl)but-3-ynyl)-N-methylbenzamide]"
10,< 10000 nM,"Fc1cc(-c2ccccc2)c2oc(CCC#Cc3ccccn3)nc2c1 [Example 83, 5-Fluoro-7-phenyl-2-(4-(pyridin-2-yl)but-3-ynyl)benzo[d]oxazole]"
11,< 10000 nM,"Cc1nc2ccccc2nc1CCC#Cc1cccc(CF)n1 [Example 181, 2-(4-(6-(Fluoromethyl)pyridin-2-yl)but-3-ynyl)-3-methylquinoxaline]"

# The next lines start with the compound.
row,SMILES,IC50
1,"Cc1nc(C#CCCn2nc3ccccc3n2)cs1 [Example 141, 2-(4-(2-Methylthiazol-4-yl)but-3-ynyl)-2H-benzo[d][1,2,3]triazole]",< 50 nM
2,"Cc1nc(C#CCCc2ccccc2)cs1 [Example 1, 2-Methyl-(4-(4-phenyl)but-1-ynyl)thiazole]",< 500 nM
3,"FCc1cccc(C#CCCn2cc3c(F)cccc3n2)n1 [Example 149, 4-Fluoro-2-(4-(6-(fluoromethyl)pyridin-2-yl)but-3-ynyl)-2H-indazole]",< 50 nM
4,"Cc1cccc2nn(CCC#Cc3ccccn3)nc12 [Example 163, 4-Methyl-2-(4-(pyridin-2-yl)but-3-ynyl)-2H-benzo[d][1,2,3]triazole]",< 50 nM
5,"FCc1cccc(C#CCCn2cc3cccc(F)c3n2)n1 [Example 155, 7-Fluoro-2-(4-(6-(fluoromethyl)pyridin-2-yl)but-3-ynyl)-2H-indazole]",< 50 nM
6,"C(#Cc1ccccn1)CCc1nc2cccnc2o1 [Example 76, 2-(4-(Pyridin-2-yl)but-3-ynyl)oxazolo[5,4-b]pyridine]",< 10000 nM
7,"Cc1ccccc1C(=O)N(C)CCC#Cc1ccccn1 [Example 212, N,2-Dimethyl-N-(4-(pyridin-2-yl)but-3-ynyl)benzamide]",< 10000 nM
8,"C(#Cc1ccccn1)CCCCn1nc2ccccc2n1 [Example 124, 2-(6-(Pyridin-2-yl)hex-5-ynyl)-2H-benzo[d][1,2,3]triazole]",< 10000 nM
9,"Cc1cccc2nn(CCC#Cc3cccc(CF)n3)nc12 [Example 164, 2-(4-(6-(Fluoromethyl)pyridin-2-yl)but-3-ynyl)-4-methyl-2H-benzo[d][1,2,3]triazole]",< 50 nM
10,"CCc1ccccc1-c1noc(CCC#Cc2ccccn2)n1 [Example 2, 2-(4-(3-(2-Ethylphenyl)-1,2,4-oxadiazol-5-yl)but-1-ynyl)pyridine]",< 10000 nM
11,"Clc1cccc2nn(CCC#Cc3ccccn3)cc12 [Example 150, 4-Chloro-2-(4-(pyridin-2-yl)but-3-ynyl)-2H-indazole]",< 50 nM
